Measured values as given in US7608612B2, “Radiosensitizer formulations and methods for use” (priority 2005, dated 2009).
“Also recorded” adds a separate entry of the source.

Experiments:
[1] = test system: Chinese hamster ovary (CHO) cells; test: In vitro study of 4(5)-nitrohistidine as a radiosensitizer under hypoxic conditions; type: cell-based; settings: 30 min hypoxic pre-incubation
[2] = test system: Chinese hamster ovary (CHO) cells; test: In vitro study of 4(5)-nitrohistidine as a radiosensitizer, 300 cGy 9 MeV electron beam; type: cell-based
Experimental: FIG. 2A is an in vitro study of nitrohistidine on Chinese hamster ovary (CHO) cells. CHO cells were in use in an F12 medium with fetal calf serum. A 9 MeV electron beam was used to irradiate the Petri dishes, dose 300 cGy, and a concentration range of 1-4 mM nitrohistidine was employed.
FIG. 2B is an in vitro study of nitrohistidine compared to misonidazole on CHO cells.
An in vitro study using Chinese hamster ovary (CHO) cells was carried out using F12 medium with fetal calf serum for growth of the CHO cells. A 9 MeV electron beam, generated by a Varian Clinac 1800 instrument, was used to irradiate the Petri dishes, at a dose of 300 cGy, and a concentration of 1 to 4 mM 4(5)-nitrohistidine was added alone, or in combination with the radiation dose.

Lewis lung carcinoma [3] = test: In vivo growth retardation experiment 2 with Lewis lung carcinoma (comparison with misonidazole); parameters: species or system mice; settings: for tumor growth course (in words): mice with Lewis lung carcinoma, radiosensitizer plus radiation
Description: Another growth retardation study was done in mice implanted with Lewis lung carcinoma comparing 4(5)-nitrohistidine (NHis) plus radiation treatment to misonidazole plus radiation treatment.

Lewis lung carcinoma [4] = test: In vivo growth retardation experiment 1 with Lewis lung carcinoma; parameters: species or system mice (C-57)
Experimental: FIG. 4 is an in vivo Growth Retardation Study of Lewis lung carcinoma in […]. Groups of 5-6 mice were subcutaneously implanted with Lewis Lung Carcinoma cells and permitted to grow a small measurable tumor in the hind leg. Radiosensitizers were given by i.p. injection. In some comparative experiments, nitrohistidine was employed at half the concentration of misonidazole. The measurable tumors were treated with a single 500 cGy fraction of 9 MeV electrons.
FIG. 5 is a tumor size assessment plot from the Growth Retardation Study of FIG. 4, showing tumor size as a function of time (in days).
Groups of 5-6 mice (C-57) were subcutaneously implanted in the hind leg with Lewis lung carcinoma cells and the cells were permitted to grow until a measurable tumor was evident. Radiosensitizers were administered using i.p. injection at 2 mM concentration, and then treated with a single 500 cGy dose administered with a 9 MeV electron beam and tumor size measured daily for a period of 9 days. Control mice were implanted with tumor cells and left untreated.

protozoa = settings: Brossi et al.; cited from earlier work
[5] = test system: Chinese hamster ovary (CHO) cells; test: In vitro synergism of buthionine sulfoximine and 4(5)-nitrohistidine as radiosensitizers; type: cell-based; settings: compounds at 2 mM, radiation 0 to 10 Gy
Experimental: Buthionine sulfoximine is an agent known to deplete the levels of endogenous detoxifier and radioprotector glutathione. […] In several experiments, as here, the enhancement ration was greater than two with both agents present. CHO cells were used in the experiments and trhe compounds were present at 2 mM concentration as indicated.
Chinese hamster ovary cells were grown on F12 medium supplemented with fetal calf serum. Cells were treated with dosages of radiation from 0 to 10 Gy, using a 9 MeV electron beam as above, either alone or in the presence of nitrohistidine, buthionine sulfoximine, or 4(5)-nitrohistidine plus buthionine sulfoximine together. When present, the buthionine sulfoximine and 4(5)-nitrohistidine were added at 2 mM concentration. […] S. fractions remaining for the combined dual drug/radiation treatment indicate an initial lag time, before continued depletion of cells surviving, down to less than 0.01 SF at 10 Gy in the presence of both NHis and BSO. The enhancement ratio calculated for the combined treatment was greater than two over that of any other treatment combination.

tumors = settings: number of trials out of all trials; cited from earlier work
[6] = first group of mice, NHis+XRT, day 9
[7] = second group of mice, NHis+XRT, day 9

| Compound | S. Fraction at 10 Gy ([1]; 2 mM plus radiation) | calculated enhancement ratio ([1]; 2 mM, at the 0.1 level SF value (90% killing), versus radiation alone) | toxicity of nitrohistidine alone (S. fraction, surviving fraction of cells) ([2]; 1-4 mM nitrohistidine, no radiation) | effective concentration range for radiosensitization ([2]; 300 cGy) [mM] | S. fraction (surviving fraction) in the presence of ionizing radiation (Nitro+XRT) ([2]; 300 cGy, all four concentrations 1 to 4 mM) | radiosensitizing effectiveness of 2 mM compared with 5 mM ([2]; additional studies, data not shown) | tumor growth course (in words) (Lewis lung carcinoma [3]) | in vivo radiosensitizer potency compared with misonidazole (Lewis lung carcinoma [3]; plus radiation, in vivo) | growth retardation compared to the control group (Lewis lung carcinoma [4]; [6]) | growth retardation compared to the group treated with radiation alone (Lewis lung carcinoma [4]; [6]) | tumor size at day 9 (Lewis lung carcinoma [4]; first group of mice, NHis+XRT, i.p., single 500 cGy dose) | tumor size at day 9 (Lewis lung carcinoma [4]; second group of mice, NHis alone without radiation (same value given for control)) | tumor size at day 9 (Lewis lung carcinoma [4]; second group of mice, NHis+XRT) | growth retardation compared to the XRT treatment alone (Lewis lung carcinoma [4]; [7]) [%] | growth retardation compared to the control or NHis alone (Lewis lung carcinoma [4]; [7]) | efficacy as an anti-protozoal agent relative to known anti-protozoal nitroimidazole agents (protozoa) | radiosensitization / synergism (in words) [5] | clinical trials that suggested any clinical benefit as a radiosensitizer (tumors) |
| --- | --- | --- | --- | --- | --- | --- | --- | --- | --- | --- | --- | --- | --- | --- | --- | --- | --- | --- |
| NC(Cc1nc[nH]c1[N+](=O)[O-])C(=O)O (stereo not shown) [4(5)-nitrohistidine] | about 0.006 | 1.38 | did not appear to possess toxicity by itself; also recorded: did not exhibit any toxicity | 1 to 4 | under 0.6 | nearly as effective as 5 mM | plateau in tumor growth after 9-10 days | more potent and effective radiosensitizer than misonidazole | about 22% | about 10% | about 18 mm | about 21 mm | about 15 mm | ~35 | about 29% | zero |  |  |
| CCCCS(=N)(=O)CCC(N)C(=O)O (stereo not shown) [Buthionine sulfoximine, buthionine sulfoximine] |  |  |  |  |  |  |  |  |  |  |  |  |  |  |  |  | some radiosensitization properties of its own |  |
| COCC(O)Cn1ccnc1[N+](=O)[O-] (stereo not shown) [misonidazole, reference compound] |  |  |  |  |  |  | no ability to retard tumor growth |  |  |  |  |  |  |  |  |  |  | 5 of 38 |
